This experiment concerns the target human GPR40 receptor (Homo sapiens, UniProt O14842). In words: IP1 accumulation measurements using the IPOne assay system in 1321N1 cells stably expressing human GPR40 receptor. The experiment is classed as cell-based. Particulars: 1321N1 cells expressing human GPR40, 1 hour stimulation at 37° C., Table 2. Here is the method:
(§1) IP1 is assayed according to the Manufacturer's description (Cisbio Bioassays, France). In brief, the assay is started by substitution of the culture medium by stimulation buffer (Hepes 10 mM, CaCl2 1 mM, MgCl2 0.5 mM, KCl 4.2 mM, NaCl 146 mM and glucose 5.5 mM, pH 7.4) without LiCl or with […]. Cells are stimulated for 1 hour at 37° C., 5 or 10% CO2 by addition of the compounds that are diluted in stimulation buffer containing LiCl yielding a final LiCl concentration of 50 mM. Assays are stopped by adding HTRF-conjugates (IP1-d2 and Anti-IP1 cryptate Tb) and lysis buffer, provided by the manufacturer. After an incubation time of 1 hour at room temperature plates are measured using an EnVision™, Perkin Elmer. The obtained fluorescence ratios at […] are then used to calculate the pEC50 values using GraphPad Prism 5 (Graphpad Software Inc, USA) or Assay Explorer 3.3 Software (Accelrys, Inc.) by interpolation using an IP1 reference curve and subsequent sigmoidal curve fitting allowing for a variable hill slope.
as §1, with “IP1 accumulation measurements using the IPOne assay system—1321N1 cells stably expressing human GPR40 receptor (Euroscreen, Belgium) are seeded 24 h before the assay in black clear-bottom collagen-coated or white 384-well plates in culture medium containing 10% FCS, 1% Na-Pyruvate and 400 μg/mL G418. IP1 is” for “IP1 is”
Chain of human GPR40 receptor (O14842 whole entry): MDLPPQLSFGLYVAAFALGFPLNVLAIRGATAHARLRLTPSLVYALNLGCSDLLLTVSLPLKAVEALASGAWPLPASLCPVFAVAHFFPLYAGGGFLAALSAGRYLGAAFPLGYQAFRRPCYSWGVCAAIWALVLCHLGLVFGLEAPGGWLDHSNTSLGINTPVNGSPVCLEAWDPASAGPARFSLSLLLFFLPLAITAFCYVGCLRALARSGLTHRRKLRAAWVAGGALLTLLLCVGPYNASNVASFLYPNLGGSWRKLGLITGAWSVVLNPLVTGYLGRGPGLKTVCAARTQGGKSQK
As a reminder, the EC50 is the concentration giving half of the maximal effect. Read a high EC50 as a need for much substance. On to `O=C(O)[C@H]1C[C@@H]1c1ccc(O[C@@H]2CCc3c(Oc4ccc(OCc5ccccc5)cc4)ccc(F)c32)cc1` [Example 1], for which the EC50 came to 6 nM. `O=C(O)[C@H]1C[C@@H]1c1ccc(O[C@@H]2CCc3c(Oc4ccc(O)cc4)ccc(F)c32)cc1` [Example 2] showed a concentration giving a half-maximal response (EC50) of 6 nM.

Consider `O=C(O)[C@H]1C[C@@H]1c1ccc(O[C@@H]2CCc3c(Oc4ccc(OCc5ccccc5)c(F)c4)ccc(F)c32)cc1` [Example 3], for which the EC50 amounted to 5 nM.

Compound `CC(C)(O)CCOc1ccc(Oc2ccc(F)c3c2CC[C@H]3Oc2ccc([C@H]3C[C@@H]3C(=O)O)cc2)cc1` [Example 4] had an EC50 of 5 nM. Under `O=C(O)[C@H]1C[C@@H]1c1ccc(O[C@@H]2CCc3c(Oc4ccc(OCC5(O)CCOCC5)cc4)ccc(F)c32)cc1` [Example 5] stands 7 nM; under `O=C(O)[C@H]1C[C@@H]1c1ccc(O[C@@H]2CCc3c(Oc4ccc(OC5CCOCC5)cc4)ccc(F)c32)cc1` [Example 6], 2 nM; under `CS(=O)(=O)CCCOc1ccc(Oc2ccc(F)c3c2CC[C@H]3Oc2ccc([C@H]3C[C@@H]3C(=O)O)cc2)cc1` [Example 7], 4 nM. Under `COCCOc1ccc(Oc2ccc(F)c3c2CC[C@H]3Oc2ccc([C@H]3C[C@@H]3C(=O)O)cc2)cc1` [Example 8] stands 5 nM; under `CC(C)(O)COc1ccc(Oc2ccc(F)c3c2CC[C@H]3Oc2ccc([C@H]3C[C@@H]3C(=O)O)cc2)cc1` [Example 9], 5 nM. As for `O=C(O)[C@H]1C[C@@H]1c1ccc(O[C@@H]2CCc3c(Oc4ccc(OCCO)cc4)ccc(F)c32)cc1` [Example 10], the figure is 7 nM; as for `CC(C)(O)CCOc1ccc(Oc2ccc(F)c3c2CC[C@H]3Oc2ccc([C@H]3C[C@@H]3C(=O)O)cc2)cc1F` [Example 11], 3 nM. In the case of `O=C(O)[C@H]1C[C@@H]1c1ccc(O[C@@H]2CCc3c(Oc4ccc(OC5CCOCC5)c(F)c4)ccc(F)c32)cc1` [Example 12], a half-maximal effect (EC50) was put at 4 nM. `COCCOc1ccc(Oc2ccc(F)c3c2CC[C@H]3Oc2ccc([C@H]3C[C@@H]3C(=O)O)cc2)cc1F` [Example 13]: the response was half-maximal at 8 nM (EC50). As for `O=C(O)[C@H]1C[C@@H]1c1ccc(O[C@@H]2CCc3c(Oc4ccc(OCCN5CCOCC5)cc4)ccc(F)c32)cc1` [Example 14], the figure is 3 nM; as for `CS(=O)(=O)CCCOc1ccc(Oc2ccc(F)c3c2CC[C@H]3Oc2ccc([C@H]3C[C@@H]3C(=O)O)cc2)cc1F` [Example 15], 8 nM; as for `O=C(O)c1ccc(Oc2ccc(F)c3c2CC[C@H]3Oc2ccc([C@H]3C[C@@H]3C(=O)O)cc2)cc1` [Example 16], 92 nM. Under `CNC(=O)c1ccc(Oc2ccc(F)c3c2CC[C@H]3Oc2ccc([C@H]3C[C@@H]3C(=O)O)cc2)cc1` [Example 17] stands 9 nM.

`O=C(NCC1CC1)c1ccc(Oc2ccc(F)c3c2CC[C@H]3Oc2ccc([C@H]3C[C@@H]3C(=O)O)cc2)cc1` [Example 18] yielded a concentration for a half-maximal effect (EC50) of 6 nM. As for `CN(CCO)C(=O)c1ccc(Oc2ccc(F)c3c2CC[C@H]3Oc2ccc([C@H]3C[C@@H]3C(=O)O)cc2)cc1` [Example 19], the figure is 48 nM. `CN(C)C(=O)c1ccc(Oc2ccc(F)c3c2CC[C@H]3Oc2ccc([C@H]3C[C@@H]3C(=O)O)cc2)cc1` [Example 20] had a half-maximal effective concentration (EC50) of 11 nM.

`O=C(NC1CCOCC1)c1ccc(Oc2ccc(F)c3c2CC[C@H]3Oc2ccc([C@H]3C[C@@H]3C(=O)O)cc2)cc1` [Example 21] had an EC50 of 3 nM. Under `O=C(O)[C@H]1C[C@@H]1c1ccc(O[C@@H]2CCc3c(Oc4ccc(C(=O)N5CCOCC5)cc4)ccc(F)c32)cc1` [Example 22] stands 27 nM; under `CCNC(=O)c1ccc(Oc2ccc(F)c3c2CC[C@H]3Oc2ccc([C@H]3C[C@@H]3C(=O)O)cc2)cc1` [Example 23], 12 nM. Under `N#Cc1ccc(Oc2ccc(F)c3c2CC[C@H]3Oc2ccc([C@H]3C[C@@H]3C(=O)O)cc2)cc1` [Example 24] stands 2 nM.

`Cc1cc(C#N)ccc1Oc1ccc(F)c2c1CC[C@H]2Oc1ccc([C@H]2C[C@@H]2C(=O)O)cc1` [Example 25]: a half-maximal effect (EC50) was put at 2 nM. As for `N#Cc1ccc(Oc2ccc(F)c3c2CC[C@H]3Oc2ccc([C@H]3C[C@@H]3C(=O)O)cc2)c(F)c1` [Example 26], the figure is 19 nM; as for `COc1cc(Oc2ccc(F)c3c2CC[C@H]3Oc2ccc([C@H]3C[C@@H]3C(=O)O)cc2)ccc1C#N` [Example 27], 2 nM. As for `N#Cc1ccc(Oc2c(F)cc(F)c3c2CC[C@H]3Oc2ccc([C@H]3C[C@@H]3C(=O)O)cc2)cc1` [Example 28], the figure is 1 nM; as for `Cn1nnc(-c2ccc(Oc3ccc(F)c4c3CC[C@H]4Oc3ccc([C@H]4C[C@@H]4C(=O)O)cc3)cc2)n1` [Example 29], 3 nM; as for `CC(C)c1ccn(-c2ccc(Oc3ccc(F)c4c3CC[C@H]4Oc3ccc([C@H]4C[C@@H]4C(=O)O)cc3)cc2)n1` [Example 30], 8 nM.

In turn, `Cc1cc(Oc2ccc(F)c3c2CC[C@H]3Oc2ccc([C@H]3C[C@@H]3C(=O)O)cc2)cc(C)c1OCCC(C)(C)O` [Example 31] showed a 50% effective concentration (EC50) of 9 nM. Under `Cc1noc(-c2ccc(Oc3ccc(F)c4c3CC[C@H]4Oc3ccc([C@H]4C[C@@H]4C(=O)O)cc3)cc2)n1` [Example 32] stands 4 nM.

In turn, `Cc1nc(-c2ccc(Oc3ccc(F)c4c3CC[C@H]4Oc3ccc([C@H]4C[C@@H]4C(=O)O)cc3)cc2)nn1C` [Example 33] returned an EC50 of 5 nM. Under `CC(C)(O)CNC(=O)c1ccc(Oc2ccc(F)c3c2CC[C@H]3Oc2ccc([C@H]3C[C@@H]3C(=O)O)cc2)cc1` [Example 34] stands 16 nM; under `Cc1nc(-c2ccc(Oc3ccc(F)c4c3CC[C@H]4Oc3ccc([C@H]4C[C@@H]4C(=O)O)cc3)cc2)no1` [Example 35], 3 nM. Take `Cn1ncc2ccc(Oc3ccc(F)c4c3CC[C@H]4Oc3ccc([C@H]4C[C@@H]4C(=O)O)cc3)cc21` [Example 36]: the response was half-maximal at 2 nM (EC50). As for `Cc1nc2ccc(Oc3ccc(F)c4c3CC[C@H]4Oc3ccc([C@H]4C[C@@H]4C(=O)O)cc3)cc2s1` [Example 37], the figure is 2 nM; as for `CS(=O)(=O)c1ccc(Oc2ccc(F)c3c2CC[C@H]3Oc2ccc([C@H]3C[C@@H]3C(=O)O)cc2)cc1` [Example 38], 27 nM. Under `Cc1ccc2cc(Oc3ccc(F)c4c3CC[C@H]4Oc3ccc([C@H]4C[C@@H]4C(=O)O)cc3)ccc2n1` [Example 39] stands 6 nM; under `N#Cc1ccc2c(c1Cc1ccc(Cl)nc1)CC[C@H]2Oc1ccc([C@H]2C[C@@H]2C(=O)O)cc1` [Example 40, (1S,2S)-2-{4-[(R)-4-(6-Chloro-pyridin-3-ylmethyl)-5-cyano-indan-1-yloxy]-phenyl}-cyclopropanecarboxylic acid], 45 nM. Under `Cc1cc(C#N)cc(C)c1S(=O)(=O)c1cccc2c1CC[C@H]2Oc1ccc([C@H]2C[C@@H]2C(=O)O)cc1` [Example 41] stands 12 nM.

`Cc1cccc(C)c1S(=O)(=O)c1cccc2c1CC[C@H]2Oc1ccc([C@H]2C[C@@H]2C(=O)O)cc1` [Example 42] registered a concentration for a half-maximal effect (EC50) of 4 nM. This EC50 is about 3-fold lower than that of the compound before. As for `O=C(O)C1CC1c1ccc(O[C@@H]2CCc3c2cccc3S(=O)(=O)c2ccccc2)cc1` (stereo partly shown) [Example 43], the figure is 37 nM. For `O=C(O)C1CC1c1ccc(O[C@@H]2CCc3c2cccc3[S+]([O-])c2ccccc2)cc1` (stereo partly shown) [Example 44], the EC50 is 197 nM.

`O=C(O)[C@H]1C[C@@H]1c1ccc(O[C@@H]2CCc3c(Oc4ccccc4)ccc(F)c32)cc1` [Example 45, (1S,2S)-2-[4-((R)-7-Fluoro-4-phenoxy-indan-1-yloxy)-phenyl]-cyclopropanecarboxylic acid] registered an EC50 of 2 nM. Consider `COc1ccc(Cc2c(C#N)ccc3c2CC[C@H]3Oc2ccc([C@H]3C[C@@H]3C(=O)O)cc2)cn1` [Example 46, (1S,2S)-2-{4-[(R)-5-Cyano-4-(6-methoxy-pyridin-3-ylmethyl)-indan-1-yloxy]-phenyl}-cyclopropanecarboxylic acid], for which the EC50 was 8 nM.

The values are drawn from patent US9308194B2, “Indanyloxyphenylcyclopropanecarboxylic acids” (Boehringer Ingelheim International GmbH, priority 2013, dated 2016).
